Measured values taken from patent US20180104224A1, “PHARMACEUTICAL COMPOSITIONS COMPRISING ANTIBACTERIAL AGENTS” (priority 2014, published 2018).
One block for each compound: values may come before it.

How the values were obtained:
[1] = tested on: highly resistant strains of Pseudomonas aeruginosa; assay: MIC determination, all strains; type: cell-based; conditions: highly resistant strains of P. aeruginosa
Method: (§1) The antibacterial activity of combinations according to the invention against resistant bacterial strains was investigated. Minimum Inhibitory Concentration (MIC) determination for the combinations according to invention was carried out in Muller Hinton Agar (MHA) (BD, USA) according to Clinical and Laboratory Standards Institute (CLSI) recommendations, (Clinical and Laboratory Standards Institute (CLSI), Performance Standards for Antimicrobial Susceptibility Testing, 20th Informational Supplement, M 100-S20, Volume 30, No. 1, 2010). In short, the test strains were adjusted to deliver about 10^4 CFU per spot with a multipoint inoculator (Applied Quality Services, UK). The plates were pored with MHA containing doubling concentration range of the test combinations according to invention. The plates were inoculated and were incubated at 35° C. for 18 hours.
The results on antibacterial activity of a carbapenem antibacterial agent selected from imipenem, meropenem, ertapenem and doripenem alone and in combination with Compound A or Compound B, against highly resistant strains of Pseudomonas aeruginosa are given in Table 1. […] For example, P. aeruginosa 2779 harbors resistance due to increased AmpC expression (300 times) and increased efflux; P. aeruginosa 1405 harbors resistance due to increased AmpC expression (600 times), reduced OprD expression and increased efflux; P. aeruginosa R 70 harbors resistance due to reduced OprD expression and increased efflux; and P. aeruginosa J 154 harbors resistance due to reduced OprD.

P. aeruginosa 1405 = assay: MIC determination in Muller Hinton Agar (CLSI); type: cell-based, Pseudomonas aeruginosa; conditions: for MIC (mcg/ml) of carbapenem in presence of [A] at 4 mcg/ml: in presence of Compound A at 4 mcg/ml; for MIC (mcg/ml) of carbapenem in presence of [B] at 4 mcg/ml: in presence of Compound B at 4 mcg/ml;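 on all read-outs here: MIC read as lowest concentration giving complete growth inhibition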
Method: as §1

P. aeruginosa R 70 = assay: MIC determination in Muller Hinton Agar (CLSI);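 on MIC (mcg/ml) of carbapenem in presence of [A] at 4 mcg/ml: MIC read as lowest concentration giving complete growth inhibition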;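 on MIC (mcg/ml) of carbapenem in presence of [B] at 4 mcg/ml: MIC read as lowest concentration giving complete growth inhibition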; type: cell-based, Pseudomonas aeruginosa; conditions: for MIC: Pseudomonas aeruginosa, R70, 18 h, agent alone, P. aeruginosa R 70 [Reduced OprD + increased efflux]; for MIC (mcg/ml) of carbapenem in presence of [A] at 4 mcg/ml: in presence of Compound A at 4 mcg/ml; for MIC (mcg/ml) of carbapenem in presence of [A] at 4 mcg/ml / MIC (mcg/ml) of carbapenem in presence of [B] at 4 mcg/ml: P. aeruginosa R 70; for MIC (mcg/ml) of carbapenem in presence of [B] at 4 mcg/ml: in presence of Compound B at 4 mcg/ml
Method: as §1

P. aeruginosa 2779 = assay: MIC determination in Muller Hinton Agar (CLSI); type: cell-based, Pseudomonas aeruginosa; conditions: for MIC (mcg/ml) of carbapenem in presence of [A] at 4 mcg/ml: in presence of Compound A at 4 mcg/ml; for MIC (mcg/ml) of carbapenem in presence of [B] at 4 mcg/ml: in presence of Compound B at 4 mcg/ml;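 on all read-outs here: MIC read as lowest concentration giving complete growth inhibition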
Method: as §1

P. aeruginosa J 154 = assay: MIC determination in Muller Hinton Agar (CLSI); type: cell-based, Pseudomonas aeruginosa; conditions: for MIC: Pseudomonas aeruginosa, J154, agent alone, P. aeruginosa J 154 [Reduced OprD]; for MIC (mcg/ml) of carbapenem in presence of [A] at 4 mcg/ml: in presence of Compound A at 4 mcg/ml; for MIC (mcg/ml) of carbapenem in presence of [A] at 4 mcg/ml / MIC (mcg/ml) of carbapenem in presence of [B] at 4 mcg/ml: P. aeruginosa J 154; for MIC (mcg/ml) of carbapenem in presence of [B] at 4 mcg/ml: in presence of Compound B at 4 mcg/ml
Method: as §1

[2] = tested on: Pseudomonas aeruginosa 1405; assay: Time kill study; type: cell-based; conditions: P. aeruginosa 1405; for effect on bacterial counts through out the duration of the study (in words): when used alone
Method: (§2) The synergistic killing effect of the combinations according to invention was studied by performing time kill studies. In a typical time kill study, the freshly grown cultures were diluted to the required cell density (initial starting inoculum) in Cation adjusted Muller Hinton broth medium (BD, USA). The antibacterial agents (either alone or in combination) at the required concentrations were added into the culture-containing medium. The samples were incubated under shaking condition (120 rpm) at 37° C. Enumeration of viable bacterial count was done every 2 hour by diluting in normal saline and plating on to the Tryptic Soya Agar plates (BD, USA). The plates were incubated for 24 hours to arrive at the viable bacterial count. The results are expressed in terms of Log10 CFU per ml. In general, the decrease of 1 Log10 CFU/ml, corresponds to 90% killing of bacteria.

[3] = tested on: Pseudomonas aeruginosa R70; assay: Time kill study; type: cell-based; conditions: P. aeruginosa R70; for effect on bacterial counts through out the duration of the study (in words): when used alone
Method: as §2

[4] = in presence of Compound A or Compound B
[5] = Table 2, single agent 16 mcg/ml
[6] = Table 3, single agent 16 mcg/ml
[7] = Table 4, single agent 16 mcg/ml
[8] = Table 5, single agent 16 mcg/ml

MIC values (in words) [1, 4]: decreased significantly | MIC values (in words) ([1]; when used alone): higher MIC values | MIC (mcg/ml) of carbapenem in presence of [A] at 4 mcg/ml (P. aeruginosa 1405): 4 µg/mL | MIC (mcg/ml) of carbapenem in presence of [B] at 4 mcg/ml (P. aeruginosa 1405): 4 µg/mL | MIC (P. aeruginosa R 70): 16 µg/mL | MIC (mcg/ml) of carbapenem in presence of [A] at 4 mcg/ml (P. aeruginosa R 70): 8 µg/mL | MIC (mcg/ml) of carbapenem in presence of [B] at 4 mcg/ml (P. aeruginosa R 70): <0.12 µg/mL | MIC (mcg/ml) of carbapenem in presence of [A] at 4 mcg/ml (P. aeruginosa 2779): 0.12 µg/mL | MIC (mcg/ml) of carbapenem in presence of [B] at 4 mcg/ml (P. aeruginosa 2779): 0.06 µg/mL | MIC (P. aeruginosa J 154): 8 µg/mL | MIC (mcg/ml) of carbapenem in presence of [A] at 4 mcg/ml (P. aeruginosa J 154): 8 µg/mL | MIC (mcg/ml) of carbapenem in presence of [B] at 4 mcg/ml (P. aeruginosa J 154): 4 µg/mL
SMILES: C[C@@H](O)[C@H]1C(=O)N2C(C(=O)O)=C(S[C@@H]3CN[C@H](CNS(N)(=O)=O)C3)[C@H](C)[C@H]12 [Doripenem, doripenem]
effect on bacterial counts through out the duration of the study (in words) [2]: failed to reduce the bacterial counts | Bacterial count (Log10 CFU/ml) 0 hour ([2]; Table 2, single agent 4 mcg/ml): 6.84 Log10 CFU/ml | Bacterial count (Log10 CFU/ml) 2 hour ([2]; Table 2, single agent 4 mcg/ml): 6.17 Log10 CFU/ml | Bacterial count (Log10 CFU/ml) 4 hour ([2]; Table 2, single agent 4 mcg/ml): 5.90 Log10 CFU/ml | Bacterial count (Log10 CFU/ml) 6 hour ([2]; Table 2, single agent 4 mcg/ml): 6.60 Log10 CFU/ml | Bacterial count (Log10 CFU/ml) 0 hour ([2]; Table 3, single agent 4 mcg/ml): 6.81 Log10 CFU/ml | Bacterial count (Log10 CFU/ml) 2 hour ([2]; Table 3, single agent 4 mcg/ml): 6.17 Log10 CFU/ml | Bacterial count (Log10 CFU/ml) 4 hour ([2]; Table 3, single agent 4 mcg/ml): 5.90 Log10 CFU/ml | Bacterial count (Log10 CFU/ml) 6 hour ([2]; Table 3, single agent 4 mcg/ml): 6.60 Log10 CFU/ml | effect on bacterial counts through out the duration of the study (in words) [3]: failed to reduce the bacterial counts | Bacterial count (Log10 CFU/ml) 0 hour ([3]; Table 4, single agent 4 mcg/ml): 6.62 Log10 CFU/ml | Bacterial count (Log10 CFU/ml) 2 hour ([3]; Table 4, single agent 4 mcg/ml): 5.74 Log10 CFU/ml | Bacterial count (Log10 CFU/ml) 4 hour ([3]; Table 4, single agent 4 mcg/ml): 5.65 Log10 CFU/ml | Bacterial count (Log10 CFU/ml) 6 hour ([3]; Table 4, single agent 4 mcg/ml): 5.65 Log10 CFU/ml | Bacterial count (Log10 CFU/ml) 0 hour ([3]; Table 5, single agent 4 mcg/ml): 6.44 Log10 CFU/ml | Bacterial count (Log10 CFU/ml) 2 hour ([3]; Table 5, single agent 4 mcg/ml): 5.74 Log10 CFU/ml | Bacterial count (Log10 CFU/ml) 4 hours ([3]; Table 5, single agent 4 mcg/ml): 5.65 Log10 CFU/ml | Bacterial count (Log10 CFU/ml) 6 hour ([3]; Table 5, single agent 4 mcg/ml): 5.65 Log10 CFU/ml

SMILES: C[C@@H](O)[C@H]1C(=O)N2C(C(=O)O)=C(S[C@@H]3CN[C@H](C(=O)Nc4cccc(C(=O)O)c4)C3)[C@H](C)[C@H]12 [Ertapenem, ertapenem]
MIC values (in words) [1, 4]: decreased significantly | MIC values (in words) ([1]; when used alone): higher MIC values | MIC (mcg/ml) of carbapenem in presence of [A] at 4 mcg/ml (P. aeruginosa 1405): 128 µg/mL | MIC (mcg/ml) of carbapenem in presence of [B] at 4 mcg/ml (P. aeruginosa 1405): 64 µg/mL | MIC (P. aeruginosa R 70): > 128 µg/mL | MIC (mcg/ml) of carbapenem in presence of [A] at 4 mcg/ml (P. aeruginosa R 70): >128 µg/mL | MIC (mcg/ml) of carbapenem in presence of [B] at 4 mcg/ml (P. aeruginosa R 70): ≤0.12 µg/mL | MIC (mcg/ml) of carbapenem in presence of [A] at 4 mcg/ml (P. aeruginosa 2779): 4 µg/mL | MIC (mcg/ml) of carbapenem in presence of [B] at 4 mcg/ml (P. aeruginosa 2779): 4 µg/mL | MIC (P. aeruginosa J 154): > 128 µg/mL | MIC (mcg/ml) of carbapenem in presence of [A] at 4 mcg/ml (P. aeruginosa J 154): >128 µg/mL | MIC (mcg/ml) of carbapenem in presence of [B] at 4 mcg/ml (P. aeruginosa J 154): 128 µg/mL | effect on bacterial counts through out the duration of the study (in words) [2]: failed to reduce the bacterial counts | Bacterial count (Log10 CFU/ml) 0 hour [2, 5]: 6.84 Log10 CFU/ml | Bacterial count (Log10 CFU/ml) 2 hour [2, 5]: 6.90 Log10 CFU/ml | Bacterial count (Log10 CFU/ml) 4 hour [2, 5]: 7.87 Log10 CFU/ml | Bacterial count (Log10 CFU/ml) 6 hour [2, 5]: 7.65 Log10 CFU/ml | Bacterial count (Log10 CFU/ml) 0 hour [2, 6]: 6.81 Log10 CFU/ml | Bacterial count (Log10 CFU/ml) 2 hour [2, 6]: 6.90 Log10 CFU/ml | Bacterial count (Log10 CFU/ml) 4 hour [2, 6]: 7.87 Log10 CFU/ml | Bacterial count (Log10 CFU/ml) 6 hour [2, 6]: 7.65 Log10 CFU/ml | effect on bacterial counts through out the duration of the study (in words) [3]: failed to reduce the bacterial counts | Bacterial count (Log10 CFU/ml) 0 hour [3, 7]: 6.62 Log10 CFU/ml | Bacterial count (Log10 CFU/ml) 2 hour [3, 7]: 6.87 Log10 CFU/ml | Bacterial count (Log10 CFU/ml) 4 hour [3, 7]: 7.47 Log10 CFU/ml | Bacterial count (Log10 CFU/ml) 6 hour [3, 7]: 8.16 Log10 CFU/ml | Bacterial count (Log10 CFU/ml) 0 hour [3, 8]: 6.44 Log10 CFU/ml | Bacterial count (Log10 CFU/ml) 2 hour [3, 8]: 6.46 Log10 CFU/ml | Bacterial count (Log10 CFU/ml) 4 hours [3, 8]: 7.17 Log10 CFU/ml | Bacterial count (Log10 CFU/ml) 6 hour [3, 8]: 7.13 Log10 CFU/ml
